Reference: PubChem BioAssay (NCI)
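Following 48 hours of exposure in 96-well plates, responses at five concentrations were used to interpolate endpoints linearly. TGI: concentration producing complete growth inhibition.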

What was measured:
Assay in all cases: inhibition of tumour cell growth, NCI panel, 48 h
[1] = tested on: SR leukemia
[2] = tested on: MCF7 breast
[3] = tested on: A549 NSCLC
[4] = tested on: IGROV1 ovarian
[5] = tested on: TK-10 renal
[6] = tested on: NCI-H23 lung
[7] = tested on: DLD-1 colon
[8] = tested on: HOP-62 NSCLC
[9] = tested on: NCI-H522 lung
[10] = tested on: NCI-H460 lung
[11] = tested on: SK-OV-3 ovarian
[12] = tested on: COLO 205 colon
[13] = tested on: DMS 273 small cell lung
[14] = tested on: SK-MEL-5 melanoma
[15] = tested on: BT-549 breast
[16] = tested on: UACC-257 melanoma
[17] = tested on: PC-3 prostate
[18] = tested on: SF-539 CNS
[19] = tested on: DMS 114 small cell lung
[20] = tested on: MALME-3M melanoma
[21] = tested on: ACHN renal
[22] = tested on: OVCAR-3 ovarian
[23] = tested on: DU-145 prostate
[24] = tested on: OVCAR-8 ovarian
[25] = tested on: HCC-2998 colon
[26] = tested on: HCT-116 colon
[27] = tested on: MDA-MB-231 breast
[28] = tested on: SNB-75 CNS
[29] = tested on: K-562 leukemia
[30] = tested on: HS 578T breast
[31] = tested on: SNB-19 CNS
[32] = tested on: LXFL 529 NSCLC
[33] = tested on: SN12C renal
[34] = tested on: A498 renal
[35] = tested on: UO-31 renal
[36] = tested on: CCRF-CEM leukemia
[37] = tested on: RPMI-8226 leukemia
[38] = tested on: SK-MEL-28 melanoma
[39] = tested on: SF-268 CNS
[40] = tested on: NCI-H226 lung
[41] = tested on: CAKI-1 renal
[42] = tested on: UACC-62 melanoma
[43] = tested on: MDA-MB-435
[44] = tested on: HOP-18 NSCLC
[45] = tested on: OVCAR-4 ovarian
[46] = tested on: RXF 393 renal
[47] = tested on: HT29 colon
[48] = tested on: HOP-92 NSCLC
[49] = tested on: MOLT-4 leukemia
[50] = tested on: SF-295 CNS
[51] = tested on: EKVX NSCLC
[52] = tested on: NCI/ADR-RES ovarian
[53] = tested on: LOX IMVI melanoma
[54] = tested on: HCT-15 colon
[55] = tested on: SK-MEL-2 melanoma
[56] = tested on: KM12 colon
[57] = tested on: MDA-N
[58] = tested on: SW-620 colon
[59] = tested on: M14 melanoma
[60] = tested on: XF 498 CNS
[61] = tested on: OVCAR-5 ovarian
[62] = tested on: 786-0 renal
[63] = tested on: M19-MEL melanoma
[64] = tested on: KM20L2 colon
[65] = tested on: SNB-78 CNS
[66] = tested on: HL-60(TB) leukemia
[67] = tested on: T-47D breast
[68] = tested on: U251 CNS

**Q.** With `CC12CC(Br)(Br)C(=O)C3C1CCCC32` as the compound, how does the TGI [1] read?
**A.** 13.6 µM

**Q.** And the TGI [2]?
**A.** 11.2 µM

**Q.** And the TGI [3]?
**A.** 36.5 µM

**Q.** What about the TGI [4] of the same compound?
**A.** 27.2 µM

**Q.** What about the TGI [5] of the same compound?
**A.** 12.5 µM

**Q.** What about the TGI [6] of the same compound?
**A.** 16.3 µM

**Q.** What about the TGI [7] of the same compound?
**A.** 13.6 µM

**Q.** What about the TGI [8] of the same compound?
**A.** 28.5 µM

**Q.** What about the TGI [9] of the same compound?
**A.** 7.84 µM

**Q.** What about the TGI [10] of the same compound?
**A.** 31.7 µM

**Q.** And the TGI [11]?
**A.** 30.8 µM

**Q.** What about the TGI [12] of the same compound?
**A.** 5.16 µM

**Q.** What about the TGI [13] of the same compound?
**A.** 18.2 µM

**Q.** And the TGI [14]?
**A.** 17.5 µM

**Q.** What about the TGI [15] of the same compound?
**A.** 5.04 µM

**Q.** And the TGI [16]?
**A.** 22.2 µM

**Q.** What about the TGI [17] of the same compound?
**A.** 25.6 µM

**Q.** What about the TGI [18] of the same compound?
**A.** 23 µM

**Q.** What about the TGI [19] of the same compound?
**A.** 16.2 µM

**Q.** What about the TGI [20] of the same compound?
**A.** 9.5 µM

**Q.** And the TGI [21]?
**A.** 15.5 µM

**Q.** What about the TGI [22] of the same compound?
**A.** 7.08 µM

**Q.** What about the TGI [23] of the same compound?
**A.** 25.1 µM

**Q.** And the TGI [24]?
**A.** 12.7 µM

**Q.** What about the TGI [25] of the same compound?
**A.** 13.8 µM

**Q.** And the TGI [26]?
**A.** 5.12 µM

**Q.** And the TGI [27]?
**A.** 7.62 µM

**Q.** What about the TGI [28] of the same compound?
**A.** 22.9 µM

**Q.** And the TGI [29]?
**A.** 11.7 µM

**Q.** And the TGI [30]?
**A.** 45.2 µM

**Q.** And the TGI [31]?
**A.** 28.8 µM

**Q.** What about the TGI [32] of the same compound?
**A.** 6.83 µM

**Q.** What about the TGI [33] of the same compound?
**A.** 11.4 µM

**Q.** What about the TGI [34] of the same compound?
**A.** 31.1 µM

**Q.** What about the TGI [35] of the same compound?
**A.** 15 µM

**Q.** What about the TGI [36] of the same compound?
**A.** 9.43 µM

**Q.** And the TGI [37]?
**A.** 9.74 µM

**Q.** What about the TGI [38] of the same compound?
**A.** 6.61 µM

**Q.** And the TGI [39]?
**A.** 35.1 µM

**Q.** What about the TGI [40] of the same compound?
**A.** 27.2 µM

**Q.** And the TGI [41]?
**A.** 6.05 µM

**Q.** And the TGI [42]?
**A.** 19.7 µM

**Q.** And the TGI [43]?
**A.** 8.78 µM

**Q.** And the TGI [44]?
**A.** 22.6 µM

**Q.** And the TGI [45]?
**A.** 10.4 µM

**Q.** And the TGI [46]?
**A.** 6.04 µM

**Q.** And the TGI [47]?
**A.** 24.2 µM

**Q.** And the TGI [48]?
**A.** 6.19 µM

**Q.** What about the TGI [49] of the same compound?
**A.** 14.9 µM

**Q.** And the TGI [50]?
**A.** 29.5 µM

**Q.** And the TGI [51]?
**A.** 19.1 µM

**Q.** What about the TGI [52] of the same compound?
**A.** 6.8 µM

**Q.** What about the TGI [53] of the same compound?
**A.** 7.67 µM

**Q.** And the TGI [54]?
**A.** 15.7 µM

**Q.** And the TGI [55]?
**A.** 30.4 µM

**Q.** What about the TGI [56] of the same compound?
**A.** 28.3 µM

**Q.** What about the TGI [57] of the same compound?
**A.** 9.66 µM

**Q.** And the TGI [58]?
**A.** 5.22 µM

**Q.** What about the TGI [59] of the same compound?
**A.** 10.1 µM

**Q.** And the TGI [60]?
**A.** 21 µM

**Q.** And the TGI [61]?
**A.** 32.1 µM

**Q.** What about the TGI [62] of the same compound?
**A.** 9.32 µM

**Q.** What about the TGI [63] of the same compound?
**A.** 22.8 µM

**Q.** What about the TGI [64] of the same compound?
**A.** 37.9 µM

**Q.** And the TGI [65]?
**A.** 44.8 µM

**Q.** What about the TGI [66] of the same compound?
**A.** 9.33 µM

**Q.** And the TGI [67]?
**A.** 6.4 µM

**Q.** And the TGI [68]?
**A.** 25.9 µM
